Experimental data: publication PMC11651181, “Discovery of 6α-Thiazolylcarboxamidonaltrexamine Derivative (NTZ) as a Potent and Central Nervous System Penetrant Opioid Receptor Modulator with Drug-like Properties for Potential Treatment of Opioid Use Disorder” (ACS Pharmacology & Translational Science, 2024)
Structures can show the parent of a compound that is named as a salt. Where two headings read alike, the source gives them in different places.

Tests used:
δ opioid receptor (DOR) = molecular target: T1, δ opioid receptor (DOR) (Homo sapiens, UniProt P41143); assay: Competitive radioligand binding assay, DOR
T1 construct: expressed in transfected cells; host or cells: CHO (hDOR-CHO), membrane preparation
Procedure: The competition binding assay was performed using monoclonal mouse opioid receptors expressed in CHO cell lines (monoclonal human δ opioid receptor was used for the DOR assay).
The bound radioligand was separated using a Brandel harvester. Specific binding to the MOR, KOR, and DOR was calculated by subtracting the binding observed in the presence of 5 μM naltrexone, U50488, and SNC80, respectively, from the binding in their absence. Relative affinity values (IC50) were determined by fitting displacement binding inhibition data to a nonlinear regression model using GraphPad Prism 8.0 (GraphPad Software, San Diego, CA). The % inhibition was calculated using the formula: % inhibition = 100% - [(binding with the tested compound - nonspecific binding)/specific binding] × 100%. The IC50 values were converted to Ki values using the Cheng-Prusoff equation: Ki = IC50/ [1 + ([L*]/KD)], where [L*] is the concentration of the radioligand and KD is the KD of the radioligand.[68]

KOR = molecular target: T2, KOR (Mus musculus, UniProt P33534); assay: KOR [35S]GTPγS functional assay; type: biochemical
T2 construct: expressed in transfected cells; host or cells: CHO (KOR-CHO), membrane preparation
Procedure: (§1) The [^35S]GTPγS functional assay was used to assess the efficacy of compounds at the MOR, KOR, and DOR. In this assay, 10 μg of MOR-CHO/KOR-CHO/DOR-CHO membrane protein was incubated in 500 μL of TME with 100 mM NaCl, 20 μM GDP, 0.1 nM [^35S]GTPγS, and varying concentrations of the compound for 1.5 h in a 30 °C water bath. Protein concentration was adjusted using the Bradford protein assay. […] After incubation, bound radioactivity was separated by filtration through GF/B glass fiber filters and measured by liquid scintillation counting. All assays were performed in duplicate and repeated at least three times. Net stimulated [35S]GTPγS binding was calculated as agonist-stimulated minus basal binding.

DOR = molecular target: T3, DOR (Homo sapiens, UniProt P41143); assay: DOR [35S]GTPγS functional assay; type: biochemical
T3 construct: expressed in transfected cells; host or cells: CHO (DOR-CHO), membrane preparation
Procedure: as §1

[1] = In vivo BBB-penetration studies (LC-MS/MS of brain and plasma); design: species or system mouse; conditions: 10 mg/kg s.c.; for Brain concentration / concentration at 5 min / concentration at 10 min / concentration at 30 min: n = 3, mean ± SD; for concentration at 5 min / concentration at 10 min / concentration at 30 min: subcutaneous
Procedure: Swiss Webster mice (three mice each time point) were administered compound 6 (10 mg/kg, s.c.) or vehicle. At 5-, 10-, and 30 min time points post administration, the mice were euthanized by decapitation, and blood and brain samples were collected. Blood samples were centrifuged at 15,000 g for 10 min at 4 °C to isolate plasma. Brains were washed twice with saline before harvesting and stored in saline until homogenization. Both brain and plasma samples were kept at −80 °C until further analysis.
Compound 6 was identified and quantified in mouse plasma and brain using a modified version of a previously established method, with naloxone-d5 as the internal standard.[20] In brief, compound 6 was extracted from both blood and brain using naloxone-d5 as the internal standard (ISTD) by a liquid/liquid extraction. Before extraction, brain tissue samples were homogenized at a ratio of one-part tissue to three-parts water. Seven-point calibration curves (10–1000 ng/mL or ng/g) were prepared for in plasma, and included drug free control, negative control (lacking internal standard, ISTD) for plasma and brain, and quality control samples in plasma and brain (30, 300, and 750 ng/mL or ng/g). […], used as the internal standard, was added at a concentration of 10 ng/mL to either 100 μL of blood or 400 μL for brain homogenate to each calibrator, control, or sample, excluding the negative control. To these samples 0.5 mL of saturated carbonate/bicarbonate buffer (1:1, pH 9.5) and 2.0 mL of chloroform: isopropanol (8:2) were added. The mixtures were vortexed, centrifuged and the top aqueous layer was removed. The organic layer was transferred to a clean test tube and evaporated to dryness under nitrogen. The residues were reconstituted in 80:20 methanol: water and transferred to autosampler vials for analysis. Chromatographic separation of compound 6 and naltrexone-d5 was performed using a Shimadzu Nexera X2 liquid chromatography system with a Zorbax XDB-C18 4.6 × 75 mm, 3.5-μm column (Agilent Technologies, Santa Clara, CA). The mobile phase consisted of water with 1 g/L ammonium formate and 0.1% formic acid (Phase A) and methanol (Phase B). The flow rate was maintained at 1 mL/min. The gradient started at 20% B, increased to 80% within 1 min, and was held for 1.5 min before returning to the initial conditions. Detection was carried out using a Sciex 6500 QTRAP system with an IonDrive Turbo V source for TurbolonSpray (Sciex, Ontario, Canada). The curtain gas flow rate set to 30 mL/min while the ion source gases 1 and 2 were set to 60 mL/min. The source temperature was maintained at 650 °C and the ionspray voltage was set at 5500 V. The declustering potential was […]. The following quantification and qualifying transition ions were monitored in positive multiple reaction monitoring (MRM) mode with collisions energies in parentheses: compound 6 455> 437 (26), 455 > 268 & (41); naloxone-d5 333> 212 (45), &333 > 315 (25). Retention times of compound 6 and naloxone-d5 were 1.81 and 1.69 min, respectively. The total run time was 4 min. Compound 6 concentration was determined by linear regression plot based on peak area ratios of the calibrators.

[2] = Plasma protein binding, Sprague-Dawley rat; type: in vitro ADME
Procedure: (§2) The ADMET assessment including the hERG inhibitory activity, plasma protein binding, in vitro metabolic stability profile, CYP inhibitory effect and mutagenic evaluation were conducted by Eurofins Panlabs, Inc.[21],[61],[69]−[71]

[3] = In vitro metabolic stability in Sprague-Dawley rat liver microsomes; type: in vitro ADME; conditions: 1.0E-07 M; for % Compound Remaining, mean: rat liver microsomes
Procedure: as §2

CYP3A4 = molecular target: T4, CYP3A4 (Homo sapiens, UniProt P08684); assay: Cytochrome P450 inhibition assay, CYP3A4; type: in vitro ADME
T4 construct: Eurofins Panlabs, Inc. (contract laboratory)
Procedure: as §2

Swiss Webster mice = assay: Warm-water tail immersion assay, antagonism of morphine-induced antinociception
Procedure: The antinociceptive effect of newly synthesized compounds was evaluated using the warm-water tail immersion assay. […] In the agonism study, compounds were injected subcutaneously (s.c.) and the tail immersion test was performed 20 min later, with a 10 s maximum cutoff to prevent tissue damage. Antinociception was calculated as % MPE = [(test–control latency)/(10–control latency)] × 100. For antagonist effects, compounds were injected 5 min before morphine, and the test was conducted 20 min after morphine administration.

[4] = Sprague-Dawley rat liver microsomes

T2 sequence (P33534 whole entry): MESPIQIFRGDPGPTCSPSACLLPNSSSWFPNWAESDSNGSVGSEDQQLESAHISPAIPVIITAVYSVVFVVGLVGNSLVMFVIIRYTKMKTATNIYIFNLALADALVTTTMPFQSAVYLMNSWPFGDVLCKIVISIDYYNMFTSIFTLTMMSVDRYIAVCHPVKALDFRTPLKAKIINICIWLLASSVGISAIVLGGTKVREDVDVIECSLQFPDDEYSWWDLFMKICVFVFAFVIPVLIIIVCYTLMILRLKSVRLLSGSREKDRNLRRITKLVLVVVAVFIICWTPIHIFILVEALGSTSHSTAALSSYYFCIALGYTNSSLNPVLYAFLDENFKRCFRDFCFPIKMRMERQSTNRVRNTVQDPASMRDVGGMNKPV
T4 sequence (P08684 whole entry): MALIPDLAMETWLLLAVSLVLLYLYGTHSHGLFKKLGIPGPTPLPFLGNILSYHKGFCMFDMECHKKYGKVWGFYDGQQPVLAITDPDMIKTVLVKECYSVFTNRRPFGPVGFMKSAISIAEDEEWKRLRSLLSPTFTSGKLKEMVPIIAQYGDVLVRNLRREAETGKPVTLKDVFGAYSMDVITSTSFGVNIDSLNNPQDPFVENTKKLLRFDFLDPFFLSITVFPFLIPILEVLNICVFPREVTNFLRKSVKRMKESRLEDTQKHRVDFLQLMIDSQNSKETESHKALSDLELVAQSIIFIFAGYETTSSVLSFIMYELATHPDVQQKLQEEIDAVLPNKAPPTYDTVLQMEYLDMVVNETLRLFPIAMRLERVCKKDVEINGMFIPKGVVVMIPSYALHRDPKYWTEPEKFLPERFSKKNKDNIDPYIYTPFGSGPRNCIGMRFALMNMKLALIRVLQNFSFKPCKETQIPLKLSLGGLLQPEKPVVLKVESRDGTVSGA
T3 sequence (P41143 whole entry): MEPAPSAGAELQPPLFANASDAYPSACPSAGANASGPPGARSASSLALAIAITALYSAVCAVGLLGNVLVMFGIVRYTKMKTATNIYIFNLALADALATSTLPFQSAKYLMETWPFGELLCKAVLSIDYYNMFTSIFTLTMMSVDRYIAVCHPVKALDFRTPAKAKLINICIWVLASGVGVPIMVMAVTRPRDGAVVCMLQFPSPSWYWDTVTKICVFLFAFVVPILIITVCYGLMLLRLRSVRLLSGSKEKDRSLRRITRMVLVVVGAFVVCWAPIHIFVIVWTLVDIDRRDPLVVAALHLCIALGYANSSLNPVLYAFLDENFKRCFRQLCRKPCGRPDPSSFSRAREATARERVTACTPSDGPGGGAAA
T1 sequence (P41143 whole entry): as above

SMILES: O=C(N[C@H]1CC[C@@]2(O)[C@H]3Cc4ccc(O)c5c4[C@@]2(CCN3CC2CC2)[C@H]1O5)c1nccs1 [Compound 6, 17-Cyclopropylmethyl-3,14β-dihydroxy-4,5α-epoxy-6α-(2′-thiazolylcarboxamido)-morphinan hydrochloride]
- Ki (δ opioid receptor (DOR)): 41.1 ± 3.58 nM
- Selectivity δ/μ (δ opioid receptor (DOR); ratio of Ki values): 164
- EC50 (KOR): 3.83 ± 0.62 nM
- Emax (KOR; relative to 3 μM U50488H, mean ± SEM, read-out: KOR [35S]GTPγS binding % Emax of U50488H): 23.5 ± 2.03%
- EC50 (DOR): 23.6 ± 4.29 nM
- Emax (DOR; relative to 3 μM SNC80, mean ± SEM, read-out: DOR [35S]GTPγS binding % Emax of SNC80): 46.5 ± 2.17%
- Decrease in the plasma levels over 30 min [1]: 33%
- Brain concentration ([1]; 5 min): 0.187 ± 0.07 µg/g
- Brain concentration ([1]; 10 min): 0.235 ± 0.06 µg/g
- Brain concentration ([1]; 30 min): 0.264 ± 0.05 µg/g
- Kp at 5 min ([1]; Swiss Webster, mouse, brain and plasma, sc, 5 min, read-out: Brain-to-Plasma ratio): 0.102
- Kp at 10 min ([1]; Swiss Webster, mouse, brain and plasma, sc, 10 min, read-out: Brain-to-Plasma ratio): 0.173
- Kp at 0.5 h ([1]; Swiss Webster, mouse, brain and plasma, sc, 30 min, read-out: Brain-to-Plasma ratio): 0.217
- concentration at 5 min ([1]; Swiss Webster, mouse, brain, 5 min, read-out: Brain concentration): 187 ng/g
- concentration at 10 min ([1]; Swiss Webster, mouse, brain, 10 min, read-out: Brain concentration): 235 ng/g
- concentration at 30 min ([1]; Swiss Webster, mouse, brain, 30 min, read-out: Brain concentration): 264 ng/g
- concentration at 5 min ([1]; Swiss Webster, mouse, plasma, 5 min, read-out: Plasma concentration): 1820 ± 280 ng/mL
- concentration at 10 min ([1]; Swiss Webster, mouse, plasma, 10 min, read-out: Plasma concentration): 1360 ± 210 ng/mL
- concentration at 30 min ([1]; Swiss Webster, mouse, plasma, 30 min, read-out: Plasma concentration): 1220 ± 330 ng/mL
- fraction unbound [2]: 0.4
- half-life at 100 nM [3, 4]: > 60 min
- microsomal CLint at 100 nM [3, 4]: < 38.5 µL/min/mg
- % Compound Remaining, mean ([3]; 15 min): 106%
- % Compound Remaining, mean ([3]; 30 min): 115%
- % Compound Remaining, mean ([3]; 45 min): 103%
- % Compound Remaining, mean ([3]; 60 min): 105%
- inhibition at 10 µM (CYP3A4; 1.0E-05 M): 23.5%
- inhibition at 100 nM (CYP3A4; 1.0E-07 M): 10.1%
- AD50 (95% CL) for counteracting morphine-induced antinociception (Swiss Webster mice; mice, s.c., given 5 min before morphine): 0.043 (0.007–0.25) mg/kg
- Antagonism of morphine's antinociception, in words (Swiss Webster mice; single dose of 10 mg/kg s.c. in the presence of morphine (10 mg/kg), n = 6): significantly antagonized
